Results reported in ChEMBL document CHEMBL1201862, “PubChem BioAssay data set” (2004).
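Cells were grown in 96-well plates and exposed to each compound for 48 hours at five concentrations; endpoints were interpolated linearly between bracketing concentrations, or set to the highest concentration if not reached. At the GI50, growth is halved.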 Calls of active or inactive are those of the source. No stated cut-off is given here; in the data, active = GI50 up to about 1.1 µM and inactive = higher.

Legend:
Assay in all cases: inhibition of tumour cell growth, NCI panel, 48 h
[1] = test system: UO-31
[2] = test system: Hs-578T
[3] = test system: OVCAR-3
[4] = test system: NCI/ADR-RES
[5] = test system: SK-MEL-28
[6] = test system: CCRF-CEM
[7] = test system: SK-MEL-5
[8] = test system: SK-MEL-2
[9] = test system: HOP-62
[10] = test system: SF-539
[11] = test system: SF-268
[12] = test system: NCI-H522
[13] = test system: KM12
[14] = test system: MDA-N
[15] = test system: 786-0
[16] = test system: HCT-15
[17] = test system: BT-549
[18] = test system: DU-145
[19] = test system: SF-295
[20] = test system: T47D
[21] = test system: IGROV-1
[22] = test system: COLO 205
[23] = test system: SW-620
[24] = test system: NCI-H226
[25] = test system: PC-3
[26] = test system: A498
[27] = test system: SK-OV-3
[28] = test system: ACHN
[29] = test system: MCF7
[30] = test system: U-251
[31] = test system: MDA-MB-231
[32] = test system: OVCAR-8
[33] = test system: RXF 393
[34] = test system: M14
[35] = test system: SNB-75
[36] = test system: CAKI-1
[37] = test system: A549
[38] = test system: LOX IMVI
[39] = test system: NCI-H23
[40] = test system: HCT-116
[41] = test system: NCI-H460
[42] = test system: UACC-257
[43] = test system: K562
[44] = test system: Malme-3M
[45] = test system: SNB-19
[46] = test system: TK-10
[47] = test system: SN12C
[48] = test system: RPMI-8226
[49] = test system: OVCAR-5
[50] = test system: MDA-MB-435
[51] = test system: HL-60
[52] = test system: UACC-62
[53] = test system: HT-29
[54] = test system: MOLT-4
[55] = test system: HCC 2998
[56] = test system: OVCAR-4
[57] = test system: EKVX
[58] = test system: HOP-92

In the case of `CC1N(C)C(=O)OC12CCN(CCCC(=O)c1ccc(F)cc1)CC2` (stereo not given), the GI50 [1] is reported as > 100 µM (inactive), the GI50 [2] is reported as > 100 µM (inactive) and the GI50 [3] is reported as > 100 µM (inactive). The GI50 [4] was > 100 µM (inactive), the GI50 [5] was > 100 µM (inactive) and the GI50 [6] was > 100 µM (inactive). The GI50 [7] was > 100 µM (inactive), the GI50 [8] was > 100 µM (inactive) and the GI50 [9] was > 100 µM (inactive). For the same compound, the GI50 [10] was > 100 µM (inactive), the GI50 [11] was > 100 µM (inactive) and the GI50 [12] was > 100 µM (inactive). For the same compound, the GI50 [13] was > 100 µM (inactive), the GI50 [14] was > 100 µM (inactive) and the GI50 [15] was > 100 µM (inactive). For the same compound, the GI50 [16] was greater than 100 µM, the GI50 [17] was > 100 µM (inactive) and the GI50 [18] was > 100 µM (inactive). The GI50 [19] was > 100 µM (inactive), the GI50 [20] was > 100 µM (inactive) and the GI50 [21] was > 100 µM (inactive). The GI50 [22] was > 100 µM (inactive), the GI50 [23] was > 100 µM (inactive) and the GI50 [24] was > 100 µM (inactive). The GI50 [25] was > 100 µM (inactive), the GI50 [26] was > 100 µM (inactive) and the GI50 [27] was > 100 µM (inactive). For the same compound, the GI50 [28] was > 100 µM (inactive), the GI50 [29] was > 100 µM (inactive) and the GI50 [30] was > 100 µM (inactive). The GI50 [31] was > 100 µM (inactive), the GI50 [32] was > 100 µM (inactive) and the GI50 [33] was > 100 µM (inactive). The GI50 [34] was > 100 µM (inactive), the GI50 [35] was > 100 µM (inactive) and the GI50 [36] was > 100 µM (inactive). The GI50 [37] was > 100 µM (inactive), the GI50 [38] was > 100 µM (inactive) and the GI50 [39] was > 100 µM (inactive). For the same compound, the GI50 [40] was > 100 µM (inactive), the GI50 [41] was > 100 µM (inactive) and the GI50 [42] was > 100 µM (inactive). For the same compound, the GI50 [43] was > 100 µM (inactive), the GI50 [44] was > 100 µM (inactive) and the GI50 [45] was > 100 µM (inactive). For the same compound, the GI50 [46] was > 100 µM (inactive), the GI50 [47] was > 100 µM (inactive) and the GI50 [48] was > 100 µM (inactive). For the same compound, the GI50 [49] was > 100 µM (inactive), the GI50 [50] was > 100 µM (inactive) and the GI50 [51] was > 100 µM (inactive). The GI50 [52] was > 100 µM (inactive), the GI50 [53] was > 100 µM (inactive) and the GI50 [54] was > 100 µM (inactive).

With `CC(=O)C1=C(C)N2C(=NC3=C(CCc4ccccc43)C2c2ccc(F)cc2)S1` (stereo not given) the GI50 [1] was 52.7 µM (inactive), the GI50 [2] was 42.8 µM (inactive) and the GI50 [3] was 67.9 µM (inactive). The GI50 [4] was 37.3 µM (inactive), the GI50 [5] was > 100 µM (inactive) and the GI50 [6] was 40.3 µM (inactive). The GI50 [7] was 30.1 µM (inactive), the GI50 [8] was > 100 µM (inactive) and the GI50 [9] was 84.1 µM (inactive). The GI50 [10] was 80.5 µM (inactive), the GI50 [11] was 61 µM (inactive) and the GI50 [13] was > 100 µM (inactive). For the same compound, the GI50 [14] was 55.6 µM (inactive), the GI50 [15] was > 100 µM (inactive) and the GI50 [17] was 93.5 µM (inactive). The GI50 [18] was > 100 µM (inactive), the GI50 [19] was > 100 µM (inactive) and the GI50 [20] was 63.5 µM (inactive). For the same compound, the GI50 [21] was 27.7 µM (inactive), the GI50 [22] was 58.1 µM (inactive) and the GI50 [55] was 83.9 µM (inactive). For the same compound, the GI50 [23] was > 100 µM (inactive), the GI50 [24] was > 100 µM (inactive) and the GI50 [25] was 89.7 µM (inactive). For the same compound, the GI50 [26] was 45.7 µM (inactive), the GI50 [27] was > 100 µM (inactive) and the GI50 [28] was 77.6 µM (inactive). For the same compound, the GI50 [29] was 60.5 µM (inactive), the GI50 [30] was 84.7 µM (inactive) and the GI50 [31] was 22.3 µM (inactive). The GI50 [32] was 62.5 µM (inactive), the GI50 [33] was 52.6 µM (inactive) and the GI50 [34] was > 100 µM (inactive). The GI50 [35] was 25.6 µM (inactive), the GI50 [37] was > 100 µM (inactive) and the GI50 [38] was 44.2 µM (inactive). The GI50 [39] was > 100 µM (inactive), the GI50 [40] was > 100 µM (inactive) and the GI50 [42] was 79.4 µM (inactive). For the same compound, the GI50 [56] was 56.1 µM (inactive), the GI50 [43] was 31.3 µM (inactive) and the GI50 [45] was > 100 µM (inactive). For the same compound, the GI50 [47] was 51.3 µM (inactive), the GI50 [48] was 17.5 µM (inactive) and the GI50 [49] was > 100 µM (inactive). For the same compound, the GI50 [50] was > 100 µM (inactive), the GI50 [51] was 28.4 µM (inactive) and the GI50 [52] was 78.2 µM (inactive). The GI50 [57] was 24 µM (inactive), the GI50 [53] was 84.1 µM (inactive) and the GI50 [58] was 63.1 µM (inactive). The GI50 [54] was 2.59 µM (inactive).

In the case of `COc1cc(/N=N/N(C)C)c(C(C)c2c3cc(OC)c(OC)cc3cc[n+]2C)cc1OC` (stereo not given), the GI50 [1] is reported as > 100 µM (inactive), the GI50 [2] is reported as 63.5 µM (inactive) and the GI50 [3] is reported as 26.7 µM (inactive). The GI50 [4] was > 100 µM (inactive), the GI50 [6] was 37.3 µM (inactive) and the GI50 [7] was 21.4 µM (inactive). The GI50 [8] was 24.9 µM (inactive), the GI50 [9] was 49.7 µM (inactive) and the GI50 [10] was 10.3 µM (inactive). For the same compound, the GI50 [11] was 31.3 µM (inactive), the GI50 [13] was 14.3 µM (inactive) and the GI50 [14] was 34.8 µM (inactive). For the same compound, the GI50 [15] was 51.8 µM (inactive), the GI50 [16] was greater than 100 µM and the GI50 [17] was 46.9 µM (inactive). For the same compound, the GI50 [18] was 62.7 µM (inactive), the GI50 [19] was > 100 µM (inactive) and the GI50 [20] was 23.4 µM (inactive). For the same compound, the GI50 [21] was 36.9 µM (inactive), the GI50 [22] was 14.8 µM (inactive) and the GI50 [55] was 34.6 µM (inactive). For the same compound, the GI50 [23] was 85.7 µM (inactive), the GI50 [24] was 78.5 µM (inactive) and the GI50 [25] was 38.5 µM (inactive). The GI50 [26] was > 100 µM (inactive), the GI50 [27] was > 100 µM (inactive) and the GI50 [28] was > 100 µM (inactive). The GI50 [29] was 33.4 µM (inactive), the GI50 [30] was 38.6 µM (inactive) and the GI50 [31] was 26.3 µM (inactive). For the same compound, the GI50 [32] was 39.1 µM (inactive), the GI50 [33] was 17.6 µM (inactive) and the GI50 [34] was 86.3 µM (inactive). The GI50 [35] was 31.6 µM (inactive), the GI50 [36] was > 100 µM (inactive) and the GI50 [37] was > 100 µM (inactive). For the same compound, the GI50 [38] was 25.2 µM (inactive), the GI50 [39] was 41.6 µM (inactive) and the GI50 [40] was 30 µM (inactive). For the same compound, the GI50 [41] was 30.8 µM (inactive), the GI50 [42] was 38 µM (inactive) and the GI50 [56] was 51.9 µM (inactive). The GI50 [43] was 18.1 µM (inactive), the GI50 [44] was 34.4 µM (inactive) and the GI50 [45] was 42.3 µM (inactive). For the same compound, the GI50 [46] was 31.6 µM (inactive), the GI50 [47] was 40.5 µM (inactive) and the GI50 [48] was 7.76 µM (inactive). For the same compound, the GI50 [49] was > 100 µM (inactive), the GI50 [50] was 40.7 µM (inactive) and the GI50 [52] was 25.1 µM (inactive). For the same compound, the GI50 [57] was > 100 µM (inactive), the GI50 [53] was 35.4 µM (inactive) and the GI50 [54] was 56.1 µM (inactive).
